# Results: paper PMC1533168 (Environmental Health Perspectives, 1998)
# Values joined by “and” are separate entries in the source; they are usually repeats but may differ in a detail not shown here. Equal values may be shown once. Read-outs that look alike come from different tables or passages of the source.
# Experiments:
# [1] = Controlled chamber inhalation exposure: trichloroethene in venous blood; assay type: in vivo, human; conditions: for Blood model value at t = 0 (Blood, meas): elimination model; for Blood model value at t = 0 (Blood, meas) / Blood model value at t = 240: end of 100 ppmv 4 hr inhalation; for A coefficient (first), blood elimination model / Blood, 1st compartment half-life, elimination / A2 coefficient, blood elimination model: elimination period after 100 ppmv 4 hr inhalation; for Blood model value at t = 240: uptake model; for Blood, 1st compartment half-life, uptake / k1 time constant, blood uptake model: uptake period, 100 ppmv 4 hr inhalation; for k1 time constant, blood uptake model: time in minutes
# [2] = assay type: in vivo, human; conditions: for A2 coefficient, breath elimination model / A1 coefficient, breath elimination model / Breath, 1st compartment half-life, elimination / Breath, 2nd compartment half-life, elimination / Breath, 3rd compartment half-life, elimination: elimination period after 100 ppmv 4 hr inhalation; for Breath model value at t = 0: elimination model; for Breath model value at t = 0 / Breath model value at t = 240: end of 100 ppmv 4 hr inhalation; for Breath model value at t = 240: uptake model; for Breath, 1st compartment half-life, uptake / k1 time constant, breath uptake model: uptake period, 100 ppmv 4 hr inhalation
# [3] = assay type: in vivo, human; conditions: for Calc:meas ratio of peak blood level: elimination curves
# [4] = cited from earlier work
# [5] = all subjects, 100 ppmv 4 hr inhalation and 20 hr purified air
# [6] = Subject 108, end of 100 ppmv 4 hr inhalation
# [7] = Subject 109, end of 100 ppmv 4 hr inhalation
# [8] = Subject 110, end of 100 ppmv 4 hr inhalation
# [9] = Subject 208, end of 100 ppmv 4 hr inhalation
# [10] = Subject 209, end of 100 ppmv 4 hr inhalation
# [11] = Subject 210, end of 100 ppmv 4 hr inhalation
# [12] = all individual data point pairs, all subjects
# [13] = measured in vitro, ref Fiserova-Bergerova and Diaz (24)
structure (smiles),measurement,setting,value
ClC=C(Cl)Cl [trichloroethene],"Blood model value at t = 0 (Blood, meas)",[1]; Subject 108,"1,170.1 pg/I and 1,170 pg/I"
same,"A coefficient (first), blood elimination model",[1]; Subject 108,820.7 micrograms per liter
same,"Blood, 1st compartment half-life, elimination",[1]; Subject 108,23.54 min
same,Blood model value at t = 240,[1]; Subject 108,"1,317 pg/I"
same,"Blood, 1st compartment half-life, uptake",[1]; Subject 108,26.60 min
same,"k1 time constant, blood uptake model",[1]; Subject 108,0.02606
same,"Blood model value at t = 0 (Blood, meas)",[1]; Subject 109,"2,161.0 pg/I and 2,161 pg/I"
same,"A2 coefficient, blood elimination model",[1]; Subject 109,287.0 micrograms per liter
same,"A coefficient (first), blood elimination model",[1]; Subject 109,1874 micrograms per liter
same,"Blood, 1st compartment half-life, elimination",[1]; Subject 109,17.93 min
same,Blood model value at t = 240,[1]; Subject 109,"1,839 pg/I"
same,"Blood, 1st compartment half-life, uptake",[1]; Subject 109,64.90 min
same,"k1 time constant, blood uptake model",[1]; Subject 109,0.01068
same,"Blood model value at t = 0 (Blood, meas)",[1]; Subject 110,"1,481 pg/I and 1,480.9 pg/I"
same,"A2 coefficient, blood elimination model",[1]; Subject 110,979.1 micrograms per liter
same,"A coefficient (first), blood elimination model",[1]; Subject 110,501.8 micrograms per liter
same,"Blood, 1st compartment half-life, elimination",[1]; Subject 110,6.86 min
same,Blood model value at t = 240,[1]; Subject 110,"1,377 pg/I"
same,"Blood, 1st compartment half-life, uptake",[1]; Subject 110,45.66 min
same,"k1 time constant, blood uptake model",[1]; Subject 110,0.01518
same,"Blood model value at t = 0 (Blood, meas)",[1]; Subject 208,"1,284.6 pg/I and 1,285 pg/I"
same,"A2 coefficient, blood elimination model",[1]; Subject 208,385.1 micrograms per liter
same,"A coefficient (first), blood elimination model",[1]; Subject 208,899.5 micrograms per liter
same,"Blood, 1st compartment half-life, elimination",[1]; Subject 208,12.49 min
same,Blood model value at t = 240,[1]; Subject 208,"1,181 pg/I"
same,"Blood, 1st compartment half-life, uptake",[1]; Subject 208,24.65 min
same,"k1 time constant, blood uptake model",[1]; Subject 208,0.02812
same,"Blood model value at t = 0 (Blood, meas)",[1]; Subject 209,"1,641.0 pg/I and 1,641 pg/I"
same,"A2 coefficient, blood elimination model",[1]; Subject 209,238.0 micrograms per liter
same,"A coefficient (first), blood elimination model",[1]; Subject 209,1403 micrograms per liter
same,"Blood, 1st compartment half-life, elimination",[1]; Subject 209,21.74 min
same,Blood model value at t = 240,[1]; Subject 209,"1,608 pg/I"
same,"Blood, 1st compartment half-life, uptake",[1]; Subject 209,47.12 min
same,"k1 time constant, blood uptake model",[1]; Subject 209,0.01471
same,"Uptake curve model plateau coefficient, blood","[1]; Subject 210, Figure 1A",1132 micrograms per liter
same,"Blood model value at t = 0 (Blood, meas)",[1]; Subject 210,"1,183 pg/I and 1,182.9 pg/I"
same,"A2 coefficient, blood elimination model",[1]; Subject 210,264.4 micrograms per liter and 264 micrograms per liter
same,"A coefficient (first), blood elimination model",[1]; Subject 210,918.5 micrograms per liter and 918 micrograms per liter
same,"Blood, 1st compartment half-life, elimination",[1]; Subject 210,15.39 min
same,Blood model value at t = 240,[1]; Subject 210,"1,128 pg/I"
same,"Blood, 1st compartment half-life, uptake",[1]; Subject 210,28.85 min
same,"k1 time constant, blood uptake model",[1]; Subject 210,0.02403
same,Relevant data range for blood samples,[1]; [5],"100-1,600 pg/I"
same,"A2 coefficient, breath elimination model",[2]; Mean ± SE of 6 subjects,28.67 6.26 micrograms per liter
same,Breath model value at t = 0,[2]; Subject 108,96.6 pg/I
same,"A1 coefficient, breath elimination model",[2]; Subject 108,76.7 micrograms per liter
same,"A2 coefficient, breath elimination model",[2]; Subject 108,15.21 micrograms per liter
same,"Breath, 1st compartment half-life, elimination",[2]; Subject 108,4.40 min
same,"Breath, 2nd compartment half-life, elimination",[2]; Subject 108,54.15 min
same,"Breath, 3rd compartment half-life, elimination",[2]; Subject 108,424.98 min
same,Breath model value at t = 240,[2]; Subject 108,105.8 pg/I
same,"Breath, 1st compartment half-life, uptake",[2]; Subject 108,9.90 min
same,"k1 time constant, breath uptake model","[2]; Subject 108, time in minutes",0.07004
same,Breath model value at t = 0,[2]; Subject 109,175.5 pg/I
same,"A1 coefficient, breath elimination model",[2]; Subject 109,115.8 micrograms per liter
same,"A2 coefficient, breath elimination model",[2]; Subject 109,53.76 micrograms per liter
same,"Breath, 1st compartment half-life, elimination",[2]; Subject 109,1.15 min
same,"Breath, 2nd compartment half-life, elimination",[2]; Subject 109,27.16 min
same,"Breath, 3rd compartment half-life, elimination",[2]; Subject 109,541.52 min
same,Breath model value at t = 240,[2]; Subject 109,130.3 pg/I
same,"Breath, 1st compartment half-life, uptake",[2]; Subject 109,9.59 min
same,"k1 time constant, breath uptake model","[2]; Subject 109, time in minutes",0.07229
same,Breath model value at t = 0,[2]; Subject 110,162.5 pg/I
same,"A1 coefficient, breath elimination model",[2]; Subject 110,146.2 micrograms per liter
same,"A2 coefficient, breath elimination model",[2]; Subject 110,13.41 micrograms per liter
same,"Breath, 1st compartment half-life, elimination",[2]; Subject 110,4.07 min
same,"Breath, 2nd compartment half-life, elimination",[2]; Subject 110,88.18 min
same,"Breath, 3rd compartment half-life, elimination",[2]; Subject 110,"1,269.50 min"
same,Breath model value at t = 240,[2]; Subject 110,115.2 pg/I
same,"Breath, 1st compartment half-life, uptake",[2]; Subject 110,39.05 min
same,"k1 time constant, breath uptake model","[2]; Subject 110, time in minutes",0.01775
same,Breath model value at t = 0,[2]; Subject 208,129.9 pg/I
same,"A1 coefficient, breath elimination model",[2]; Subject 208,104.4 micrograms per liter
same,"A2 coefficient, breath elimination model",[2]; Subject 208,21.21 micrograms per liter
same,"Breath, 1st compartment half-life, elimination",[2]; Subject 208,0.97 min
same,"Breath, 2nd compartment half-life, elimination",[2]; Subject 208,29.98 min
same,"Breath, 3rd compartment half-life, elimination",[2]; Subject 208,396.31 min
same,Breath model value at t = 240,[2]; Subject 208,98.6 pg/I
same,"Breath, 1st compartment half-life, uptake",[2]; Subject 208,9.92 min
same,Breath model value at t = 0,[2]; Subject 209,161.2 pg/I
same,"A1 coefficient, breath elimination model",[2]; Subject 209,114.1 micrograms per liter
same,"A2 coefficient, breath elimination model",[2]; Subject 209,36.96 micrograms per liter
same,"Breath, 1st compartment half-life, elimination",[2]; Subject 209,2.68 min
same,"Breath, 2nd compartment half-life, elimination",[2]; Subject 209,21.44 min
same,"Breath, 3rd compartment half-life, elimination",[2]; Subject 209,262.26 min
same,Breath model value at t = 240,[2]; Subject 209,147.0 pg/I
same,"Breath, 1st compartment half-life, uptake",[2]; Subject 209,21.42 min
same,"k1 time constant, breath uptake model","[2]; Subject 209, time in minutes",0.03236
same,"Uptake curve model plateau coefficient, breath","[2]; Subject 210, Figure 1B",113 micrograms per liter
same,"k3 time constant, breath elimination model","[2]; Subject 210, Figure 1D, time in minutes",.00061
same,Breath model value at t = 0,[2]; Subject 210,194.7 pg/I
same,"A1 coefficient, breath elimination model",[2]; Subject 210,156.8 micrograms per liter and 157 micrograms per liter
same,"A2 coefficient, breath elimination model",[2]; Subject 210,31.47 micrograms per liter and 31.5 micrograms per liter
same,"Breath, 1st compartment half-life, elimination",[2]; Subject 210,1.03 min
same,"Breath, 2nd compartment half-life, elimination",[2]; Subject 210,40.30 min
same,"Breath, 3rd compartment half-life, elimination",[2]; Subject 210,"1,145.89 min"
same,Breath model value at t = 240,[2]; Subject 210,113.0 pg/I
same,"Breath, 1st compartment half-life, uptake",[2]; Subject 210,18.94 min
same,"k1 time constant, breath uptake model","[2]; Subject 210, time in minutes",0.0366
same,Relevant data range for breath samples,[2]; [5],<1-150 pg/I
same,"In vivo blood/breath partition coefficient, elimination-only data set","[3]; Mean ± SE of 6 subjects, end of 100 ppmv 4 hr inhalation",9.69
same,Calc:meas ratio of peak blood level,[3]; Subject 108,0.76
same,"Blood:breath ratio at end of exposure, calculated from elimination models",[3]; [6],12.11
same,"Blood:breath ratio at end of exposure, calculated from uptake models",[3]; [6],12.45
same,Calc:meas ratio of peak blood level,[3]; Subject 109,0.75
same,"Blood:breath ratio at end of exposure, calculated from elimination models",[3]; [7],12.31
same,"Blood:breath ratio at end of exposure, calculated from uptake models",[3]; [7],14.12
same,Calc:meas ratio of peak blood level,[3]; Subject 110,1.01
same,"Blood:breath ratio at end of exposure, calculated from elimination models",[3]; [8],9.11
same,"Blood:breath ratio at end of exposure, calculated from uptake models",[3]; [8],11.96
same,Calc:meas ratio of peak blood level,[3]; Subject 208,0.93
same,"Blood:breath ratio at end of exposure, calculated from elimination models",[3]; [9],9.89
same,"Blood:breath ratio at end of exposure, calculated from uptake models",[3]; [9],11.97
same,Calc:meas ratio of peak blood level,[3]; Subject 209,0.90
same,"Blood:breath ratio at end of exposure, calculated from elimination models",[3]; [10],10.18
same,"Blood:breath ratio at end of exposure, calculated from uptake models",[3]; [10],10.94
same,Calc:meas ratio of peak blood level,[3]; Subject 210,1.51
same,"Blood:breath ratio at end of exposure, calculated from elimination models",[3]; [11],6.07
same,"Blood:breath ratio at end of exposure, calculated from uptake models",[3]; [11],9.99
same,"Blood/breath regression slope (mean blood/breath ratio), elimination phase",[3]; [12],29.00
same,"Blood/breath regression slope (mean blood/breath ratio), uptake phase",[3]; [12],10.93
same,Inspired trichloroethene excreted through exhalation,[3]; at equilibrium,about 22%
same,Share of the expired trichloroethene coming from the blood (first) compartment,[3]; elimination phase after 4-hr exposure,about 75%
same,"In vivo blood/breath partition coefficient, overall mean","[3]; experiment time = 0, all subjects, uptake and elimination experiments",10.8
same,Mean time constant for breath relative to its blood counterpart (times as large),"[3]; initial 10 min of elimination, first compartment dominant",10
same,Time constant for breath relative to that for blood (times as large),[3]; uptake portion of the experiment,about 2.5
same,Blood/air partition coefficient,[4]; [13],8.1
same,Partition coefficient for lung tissue,[4]; [13],14.0
same,Blood/air partition coefficient,"[4]; measured in vitro, ref Gargas et al. (22)",8.11
same,Blood/air partition coefficient,"[4]; measured in vitro, ref Lindqvist (23)",15.7
same,"Blood/breath partition coefficient, accepted literature value","[4]; used in human pharmacokinetic model, ref Allen and Fisher (26)",9.2
same,Pulmonary partition coefficient,"[4]; value used, ref Fernandez et al. (25)",9
